This experiment deals with Delta-type opioid receptor (Homo sapiens, UniProt P41143).

Each structure is given as a SMILES string. Where “and” joins values, the source holds several entries; their conditions need not be identical. Identical values can stand only once. Square brackets hold non-standard residues; d marks the D form. Peptide text beside a SMILES is read from it. * marks the point of attachment. Tyr(Nα,Nα-allyl2) = C=CCN(CC=C)[C@@H](Cc1ccc(O)cc1)C(=O)*; Tic = O=C(O)[C@@H]1Cc2ccccc2CN1; Aib = CC(C)(N)C(=O)O

Delta-type opioid receptor, sequence (P41143 whole entry): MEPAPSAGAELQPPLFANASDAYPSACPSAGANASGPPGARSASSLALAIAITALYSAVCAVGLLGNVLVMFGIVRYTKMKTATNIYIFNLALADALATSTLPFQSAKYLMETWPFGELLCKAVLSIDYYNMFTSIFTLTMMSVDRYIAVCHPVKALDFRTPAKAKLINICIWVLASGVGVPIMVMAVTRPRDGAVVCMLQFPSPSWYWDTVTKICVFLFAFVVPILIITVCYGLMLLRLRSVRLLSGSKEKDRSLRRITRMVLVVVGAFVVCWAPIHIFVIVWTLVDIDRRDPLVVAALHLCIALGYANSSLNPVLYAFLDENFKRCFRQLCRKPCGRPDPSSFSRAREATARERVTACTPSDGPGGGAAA

In general, Ki refers to a dissociation constant, usually derived from enzyme kinetics or from competition with a known ligand. Lower therefore signals a stronger hold on the target. For `C=CCN(CC=C)[C@@H](Cc1ccc(O)cc1)C(=O)NC(C)(C)C(=O)NC(C)(C)C(=O)N[C@@H](Cc1ccccc1)C(=O)N[C@@H](CC(C)C)C(=O)O` [NSC_107691] ({Tyr(Nα,Nα-allyl2)}-[Aib][Aib]FL-OH), the Ki was determined as 304 nM. Next, `N[C@@H](Cc1ccc(O)cc1)C(=O)N1Cc2ccccc2C[C@H]1C(=O)N[C@@H](Cc1ccccc1)C(=O)N[C@@H](Cc1ccccc1)C(=O)O` [TIPP] (H-Y[Tic]FF-OH): 5.8 nM and 3.02 nM.
